System: Plasmid (pMB57.6)-DNA
Type: binding
Conditions: 0.5 μM

## SARS-CoV-2 (2019-nCoV) nucleocapsid recombinant protein [N-protein]
  decrease of fluorescence intensity of DNA-DiYO-1 complex: 96.3%

Reference: patent US20250195638A1, “TREATMENT AND PREVENTION OF CONDITIONS ASSOCIATED WITH RESPIRATORY DISEASES” (priority 2020, published 2025)
